Source: patent US20180147198A1, “COMBINATIONS OF PFKFB3 INHIBITORS AND IMMUNE CHECKPOINT INHIBITORS TO TREAT CANCER” (UNIVERSITY OF LOUISVILLE RESEARCH FOUNDATION, INC., priority 2015, published 2018)

Assays:
PBMCs = assay: Immunophenotyping by flow cytometry of PBMCs of 4 metastatic cancer patients; assay type: in vivo, human; details: of 4 patients; after 15 days of administration
Protocol: (§1) 18 cancer patients completed 2 cycles of 24-470 mg/M^2 PFK-158; 5 of these patients experienced stabilization of their disease (i.e. no growth and no new tumors) and tumor regressions have been observed in multiple patients. For example, a person with renal cell carcinoma who had progressed after all available FDA-approved agents including mTOR and VEGFR inhibitors and IL-2 entered the study (470 mg/M^2). They experienced stabilization of disease by immune-related response criteria (26% reduction in maximum diameters) with multiple tumors regressing and has entered their seventh month of treatment. Of these 18 patients, immunophenotyping by flow cytometry on 4 patients' PBMCs has been carried out. These four patients were administered PFK-158 for 2 weeks and PBMCs were collected at baseline, day 15, and then analyzed by flow cytometry for CD3+CD4+il-17+ cells and CD8+CD137+ T cells.

cancer patients = assay: Phase 1 trial of PFK-158 in cancer patients (clinical response, tolerability); assay type: in vivo
Protocol: A phase 1 trial of PFK-158 in cancer patients is currently being conducted at Georgetown University, UT Southwestern, Md. Anderson Cancer Center and the U. of Louisville (clinicaltrials.gov# NCT02044861). […] Institutional investigators have observed partial tumor regressions in 3 patients with ocular melanoma, ovarian cancer and renal cell carcinoma and de novo stabilization of tumor burden in 2 patients (breast and adenoid cystic carcinoma). A person with ocular melanoma was administered 24 mg/M^2 in cohort 1 of the phase 1 trial of PFK-158—a dose that is markedly lower than that required to cause the known cytotoxic effects of PFK-158. […] Over the course of six months of therapy, several of the patient's hepatic metastases first became necrotic after 2 monthly cycles (hypoattenuation appears dark on CT imaging) and then shrunk after 6 cycles (FIG. 18).
The patient was administered PFK-158 for 4 cycles and their bony metastases were deemed to be stable (FIG. 19, left two panels) and several liver metastases became necrotic (FIG. 19, right panel).
as §1

Th17 cells = assay: IL-17A production (ELISA) during in vitro Th17 differentiation; assay type: cell-based, human; details: PFK-158 every two days of culture, FIG. 17E,F
Description: (§2) The differentiation of Th17 cells from naïve CD4^+ T cells was induced and, for γδT17 cells, naïve Vγ9Vδ2 T cells were isolated from healthy donors and polarized into IL-17 producing γ6T cells using established methods.
(§3) Human naïve CD4^+ T cells differentiated into Th17 cells or sorted human naïve Vγ9Vδ2 T cells were polarized in vitro and analyzed for PFKFB2-4 mRNA (FIG. 17 A,B), F26BP, and PFKFB3 protein (FIG. 17 C,D). The CD4^+ T cells (during in vitro Th17 differentiation) and Vγ9Vδ2 T cells (during in vitro polarization) were exposed to vehicle (DMSO) or the indicated concentrations of PFK-158 (every two days of the culture period) and IL-17A production was quantified by ELISA (FIG. 17 E,F).

γδT17 cells = assay: IL-17A production (ELISA) during in vitro polarization of Vγ9Vδ2 T cells; assay type: cell-based, human; details: PFK-158 every two days of culture, FIG. 17E,F
Description: as §2, §3

[1] = test system: peripheral blood mononuclear cells; assay: Flow cytometry of peripheral blood mononuclear cells of a breast cancer patient receiving PFK-158; assay type: in vivo, human; details: after 1 week, persisted through treatment
Protocol: An unexpected stability of tumors in multiple patients receiving PFK-158 at doses that were considered to be sub-therapeutic has been observed. […] This breast adenocarcinoma patient received 96 mg/M^2 of PFK-158 every other day for three weeks followed by a one week rest—this cycle was repeated for a total of four cycles. Peripheral blood mononuclear cells were collected on days 1, 8, 15, 22 and 62 and flow cytometry was conducted for a multitude of immunosuppressive cells and activated T cells. […] These cells are the main CD8+ T cells that can infiltrate tumors and differentiate into cytolytic T cells which kill tumor cells. […]
Given the decrease in Th17 cells and increase in effector CD8^+ T cells observed after PFK-158 administration, the ability of PFK-158 to cause an increase in terminally-differentiated CD8^+ effector cells was examined. CD8^+CD57^+CD27^− TCD28^− The breast cancer patient described in Example 7 was administered PFK-158 for 1 cycle and PBMCs were collected at baseline, day 8, 15, 22, and then analyzed for CD8^+CD57^+CD27^− TCD28^− T cells and PD-1. […]
CD57 is a terminally sulfated carbohydrate that is selectively expressed on antigen-specific, and functionally competent memory/effector CD8^+ T cells. […] PBMCs were collected at baseline, day 8, 15, and 22 and CD8^+CD57^+CD27^− CD28^− T cells were analyzed for CD57 expression. […]

human CD3+ T cells = details: 1-10 μM; anti-CD3/anti-CD28 microbead stimulation; cited from earlier work
[2] = test system: delayed type hypersensitivity to methylated BSA; details: mice; cited from earlier work
[3] = test system: imiquimod-induced psoriasis; details: mice; cited from earlier work

SMILES | patients with a reduction in frequency of Th17 cells (PBMCs) [patients] | patients with de novo stabilization of tumor burden (cancer patients; breast and adenoid cystic carcinoma) [patients] | patients with partial tumor regressions (cancer patients; ocular melanoma, ovarian cancer and renal cell carcinoma) [patients] | patients with stabilization of their disease (cancer patients; of 18 cancer patients who completed 2 cycles of 24-470 mg/M^2) [patients] | reduction in maximum diameters (immune-related response criteria) (cancer patients; person with renal cell carcinoma, 470 mg/M^2) [%] | maximum tolerated dose (cancer patients; phase 1 trial, entered cohort 7, currently at 650 mg/M^2) | concentration reducing IL-17A, fold less than required to inhibit neoplastic and endothelial cells growth (Th17 cells) [fold] | concentration reducing IL-17A, fold less than required to inhibit neoplastic and endothelial cells growth (γδT17 cells) [fold] | increase in circulating cancer-reactive CD8+/CD57+/CD27-/CD28- T cells [1] [%] | stimulation of F2,6BP synthesis, 2-[1-14C]-deoxy-D-glucose uptake, lactate secretion, TNF-α secretion and T cell aggregation and proliferation (human CD3+ T cells) | development of delayed type hypersensitivity to methylated BSA [2] | development of imiquimod-induced psoriasis [3]
O=C(/C=C/c1ccc2ccc(C(F)(F)F)cc2n1)c1ccncc1 [PFK-158, (E)-1-(pyridyn-4-yl)-3-(7-(trifluoromethyl)quinolin-2-yl)-prop-2-en-1-one] | 4 | 2 | 3 | 5 | 26 | without reaching a maximum tolerated dose | ~10 | ~10 | 36 |  |  | 
O=C(C=Cc1cccnc1)c1ccncc1 [3PO, 3-(3-pyridinyl)-1-(4-pyridinyl)-2-propen-1-one] |  |  |  |  |  |  |  |  |  | markedly attenuated | suppressed | suppressed
